Measured values from patent US6627211B1, “Transnasal anticonvulsive compositions and modulated process” (SK Corporation, priority 1999, dated 2003).

What was measured:
in vitro = details: for Mean Transnasal Flux: diazepam, 37° C., n = 2
Excerpt: The nasal mucous membrane used in these in vitro experiments was obtained from New Zealand White rabbits (2.5-3.0 kg). Rabbits were sacrificed by IV injection of phenobarbital. The nasal septum was carefully removed from a bone block using surgical scissors and a bone-cutting saw. Two pieces of nasal mucous membranes were then carefully stripped from the nasal septum without touching the center of the membrane surface and rinsed with normal saline solution. The mucosal membrane was mounted between two half-cells of a glass diffusion cell apparatus. The exposed area of the nasal membrane was approximately 0.64 cm^2. A test solution or suspension (3.5 ml) was introduced into the mucosal side of the membrane in the donor compartment while 3.5 ml of 10% ethanol, 40% propylene glycol, and 50% pH 7.4 isotonic phosphate buffer solution was added to the receptor compartment. The entire diffusion system was maintained at 37° C. throughout the experiment. At predetermined time intervals, 100 μl of the receptor solution was withdrawn for the assay and refilled with the same volume of fresh receptor medium to keep the volume constant. The steady-state flux value was determined from the slope of the straight line attained from the plot of the cumulative amount of drug permeated as a function of time. Each experiment was carried out in at least duplicate.
A high pressure liquid chromatographic system equipped with a multi-solvent delivery system (Model 600E, Waters Associates, Milford, Mass.), an auto-injector (Model 717 Plus, Waters Ass.), a photodiode array detector (Model 996, Waters Ass.), a reverse phase Symmetric C18 column (150 mm ×3.9 mm ID, 5 μm), and a Millenium 2010 software computer system was used in this study.
In these studies, a series of bile salts such as sodium cholate, sodium deoxycholate, sodium taurocholate, and sodium glycocholate, and a lecithin such as lysophosphatidylcholine were examined. The permeation rates were measured using the method described under the in vitro membrane permeation test method.
The permeation rates were determined utilizing the method described in Example 1.
The in vitro membrane permeation rates were measured using the test method described in Example 1.
Sample drug solutions (10 mg/ml) were prepared with the vehicle with and without the bile salt. The membrane permeation rates were measured in the use of the test method described in Example 1.
The in vitro permeation experiments were performed using the test method described in Example 1.

[1] = Bioavailability and pharmacokinetics of (S)-2-carbamoyloxyl-1-o-chlorophenylethanol preparations after IV and IN administration; type: in vivo; details: rabbits
Method: A formulation for IV injection was prepared by dissolving 15 mg (S)-2-carbamoyloxyl-1-o-chlorophenylethanol in 1 mL of 40% PEG 400 and 60% water and filtering through a sterile membrane filter under aseptic conditions. The formulations were administered to rabbits (n=2-4) at the two dosing levels of 2.5 mg/kg and 5 mg/kg in a manner analogous to that described in Example 7. A repeated dosing regimen at 5 minute intervals was also studied in the nasal application of the preparation of the invention. […] To the plasma sample, 50 μl of an internal standard solution (2-(2,6-dichlorophenyl)-2-carbamoyloxyethyl)oxocarboxamide-10 μg/ml) and 5 ml of methyl-butyl ether were added. The mixture was vortexed for 60 seconds and centrifuged at 3500 rpm for 10 minutes. […] The residue was reconstituted with 200 μl of deionized water. The (S)-2-carbamoyloxyl-1-o-chlorophenylethanol concentration in the plasma was determined by HPLC in the use of a mobile phase consisting of 20% acetonitrile and 80% water with a flow rate of 1 ml/minute and UV detection at 210 nm. The detection limit for (S)-2-carbamoyloxyl-1-o-chlorophenylethanol was 23 nmol/l. The pharmacokinetic parameters determined after IV and IN administration of (S)-2-carbamoyloxyl-1-o-chlorophenylethanol at two dose strengths are presented in Table VIII. […]

[2] = Bioavailability and pharmacokinetics of clonazepam preparations after IV and IN administration; details: rabbits
[3] = dogs, after the nasal administration; cited from earlier work
[4] = vehicle 30% ethanol, 60% propylene glycol, 10% water, initial drug concentration 5mg/ml

In the case of NC(=O)OC[C@@H](O)c1ccccc1Cl [(S)-2-carbamoyloxyl-1-o-chlorophenylethanol], the Papp at 5 mg/ml (in vitro; New Zealand White, rabbit) is reported as 27.1 ×10⁻⁶ cm/s, the “Transnasal Flux” value (in vitro; New Zealand White, rabbit, 5 mg/ml) is reported as 487.6 μg/cm^2/hr and the “time at which plasma concentration after the second dosing exceeded the plasma level of a single IV injection” value ([1]; IN 5 mg/kg × 2 vs IV 5 mg/kg) is reported as 30 min. For the same compound, the “Cmax and AUC0-240 minutes after the second intranasal application” value ([1]; second IN application 5 minutes after the first dosing, 5 mg/kg × 2) was “doubled”.
For O=C1CN=C(c2ccccc2Cl)c2cc([N+](=O)[O-])ccc2N1 [Clonazepam, clonazepam], the “time to initial peak plasma concentration” value ([2]; after the first intranasal application) was no more than 2 min, the “peak plasma level relative to the IV injection” value ([2]; first intranasal application 0.2 mg/kg) was “about 32%” and the “peak plasma concentration after the third application compared with the single IV injection” value ([2]; third IN application at 5 minutes intervals, peak observed at 15 minutes) was “nearly identical”. The Papp at 5 mg/ml (in vitro; New Zealand White, rabbit) was 19.3 ×10⁻⁶ cm/s and the “Transnasal Flux” value (in vitro; [4]) was 347.7 μg/cm^2/hr.
For CN1C(=O)CN=C(c2ccccc2)c2cc(Cl)ccc21 [Diazepam, diazepam], the “increase in the steady-state flux when 1% sodium glycocholate is incorporated into the vehicle” value (in vitro; 10 mg/ml diazepam in 30% ethanol, 60% propylene glycol, 10% water with vs without 1% SGC (FIG. 3)) was “approximately 50%”, the “Mean Transnasal Flux” value (in vitro; vehicle 1% Lysophosphotidylcholine/H2O) was 125.5 μg/cm^2/hr and the “Mean Transnasal Flux” value (in vitro; vehicle 1% Sodium Cholate/H2O) was 66.3 μg/cm^2/hr. For the same compound, the “Mean Transnasal Flux” value (in vitro; vehicle 1% Sodium Deoxycholate/H2O) was 74.9 μg/cm^2/hr, the “Mean Transnasal Flux” value (in vitro; vehicle 1% Sodium Glycocholate/H2O) was 96.4 μg/cm^2/hr and the “Mean Transnasal Flux” value (in vitro; vehicle 1% Sodium Taurocholate/H2O) was 87.0 μg/cm^2/hr. The “Mean Transnasal Flux” value (in vitro; vehicle Water) was 79.5 μg/cm^2/hr and the “Transnasal Flux” value (in vitro; [4]) was 246.0 μg/cm^2/hr.
In the case of Cc1nnc2n1-c1ccc(Cl)cc1C(c1ccccc1Cl)=NC2 [triazolam], the “time to maximum plasma concentration” value [3] is listed as 18 min.
